Assay type in all cases: cell-based, Human
The subject of data set [1] is PC-9. Put plainly: Apoptosis assay (Annexin V-FITC/PI flow cytometry), PC-9. The conditions noted are these: 48 h. The method, then:
(§1) Further, the effects of 9e and 9p on the apoptosis of tumor cells were studied to get details of the suppression of cell proliferation caused by these compounds. PC-9 and H460 cells treated with different concentrations of 9e or 9p were stained with Annexin V-FITC and PI, and the numbers of apoptosis cells were analyzed by the flow cytometry.
(§2) PC-9 and H460 cells were cultured in 6-well plates with a density of 3 × 10^5 cells/well. Different concentrations of 9e or 9p were added to cells for 48 h respectively. The concentrations were 0, 2, 4, and 8 µM for PC-9 cells and 0, 4, 8 and 16 µM for H460 cells. After treatment, Annexin V-FITC Apoptosis Detection Kit was used to determine the apoptotic ratio and FlowJo software v10 was used to analyze of the results.
A general note: A flow cytometer gives signals particle by particle.

Data set [2] relates to PC-9. Put plainly: Plate clone formation assay, PC-9. The conditions noted are these: PC9, 0, 2, 4, 8, 16 and 32 µM, 48 h. The method, then: (§3) The plate clone formation experiments were also carried outto further confirm the effects of dolutegravir derivatives on cell proliferation. Compounds 9e and 9p with different concentrations (0, 2, 4, 8, 16 and 32 µM) were added to the cells.
(§4) PC-9 and H460 cells were seeded into 6-well plates at a density of 100–500 cells/well. After 10 days culture, cells were added with 9e or 9p at different concentrations (0, 2 µM, 4 µM, 8 µM, 16 µM, 32 µM) for 48 h. Then cells were fixed by 4% paraformaldehyde and stained by Giemsa dye. An optical microscope was used to photograph cells and count the clone numbers.

Data set [3] deals with H460. Put plainly: CCK8 cell viability assay, H460. The conditions noted are these: for Cell viability (100%): H460, 20 µM, 48 h, CCK8, control = 100%; for IC50: H460, 48 h, CCK8, mean ± SE. The method, then:
(§5) At first, CCK8 assay was carried out to evaluate the anti-proliferative activity of dolutegravir-1,2,3-triazole derivatives against different cancer cell lines. The results of cell viability of three lung cancer cell lines A549, PC-9 and H460 in the presence of compounds 9 and 10 are summarized in Table 2. Cells were treated with different compounds at the concentration of 20 µM for 48 h. […] Human lung cancer cell lines A549, PC-9 and H460 were all obtained from ATCC. Cells were cultured in DMEM or RPMI 1640 medium containing 10% FBS and 1% penicillin/streptomycin at 37 °C with a 5% CO2-humidified atmosphere. CCK8 assay was used to measure cell viability. Cells with a density of 1 × 10^4 cells/well were seeded on the 96-well plates. After adhesion, cells were treated with different diluted compounds or vehicle control DMSO and continue cultured for 48 h. Then, CCK8 reagent was added for one hour incubation at 37 °C with 5% of CO2. Absorbance was measured using a microplate spectrophotometer (Thermo) at 450 nm. The ratio of cell viability of control was taken as 100%. […] Then IC50 of the compounds were investigated using the prism statistical software.
In general terms: Tetrazolium assays rely on reduction of a dye to a coloured formazan, in cell work by metabolically active cells.

The subject of data set [4] is H460. Put plainly: Cellular ROS measurement (DCFH-DA), H460. The note with it: H460, 5 µM and 10 µM, 24 h, DCFH-DA staining. The method, then:
(§6) Reactive oxygen species could induce cell death and suppress cell growth and proliferation. To assess the role of compounds 9e and 9p in ROS generation, different cancer cell lines were treated with 9e or 9p for 24 h. DCFDA was used to stain cells and ROS was detected with fluorescent microscope.
(§7) PC-9 and H460 cells were cultured in 96-well plates in a density of 5 × 10^3 cells/well. Different concentrations (0, 5 and 10 µM) of 9e or 9p were added to cells respectively for 24 h. After treatment, cells were stimulated with 10 µM DCFH-DA for 30 min at 37 °C, then observed and photographed using a fluorescent microscope.

The test system of data set [5] is H460. Nature of the data set: Plate clone formation assay, H460. The conditions noted are these: H460, 0, 2, 4, 8, 16 and 32 µM, 48 h. The method, then:
as §3, §4

The test system of data set [6] is PC-9. Nature of the data set: Cellular ROS measurement (DCFH-DA), PC-9. The note with it: PC-9, 5 µM and 10 µM, 24 h, DCFH-DA staining. The protocol: as §6, §7
For data set [7], the system named is PC-9. Nature of the data set: CCK8 cell viability assay, PC-9. The conditions noted are these: for Cell viability (100%): PC9, 20 µM, 48 h, CCK8, control = 100%; for IC50: PC9, 48 h, CCK8, mean ± SE. The method, then: as §5
For data set [8], the system named is β-catenin. Put plainly: Western blot of β-catenin in PC-9 cells. The note with it: PC-9, 0, 2, 4, 8 µM, 48 h. The source says: (§8) To determine the role of compounds 9e and 9p on regulating the development of cell proliferation, expressions of key proteins which were involved in cell growth progresses such as autophagy, apoptosis, cell cycle and DNA damage were examined. Ubiquitin like molecule light chain 3 (LC3) is a key marker of autophagy. […] Caspase3, which is one of the key proteins in regulating apoptosis, however, was not changed in tumor cells after treated with 9e or 9p. Cell cycle regulation proteins such as CyclinD, CyclinE or β-catenin were also not affected when PC-9 was treated with 9e or 9p. Further, H2AX variant histone (γ-H2AX), which was responsible for DNA damage, was also not affected when PC-9 were treated with 9e or 9p.
(§9) Protein expression levels were measured by western blot. PC-9 cells were cultured in 12-well plates and different concentrations (0, 2, 4, 8µM) of 9e and 9p were added for 48 h. Proteins were extracted from whole cells using radioimmunoprecipitation assay (RIPA). Buffer containing protease/phosphatase inhibitor cocktail (CST). Sodium dodecyl sulfate (10-15%) polyacrylamide gel electrophoresis and nitrocellulose membranes (Millipore) were used to separate and collect proteins. Antibodies used include, LC3 (3868s, CST), Caspase3 (9662, CST), cyclin D (2922s, CST), cyclin E (20808s, CST), γ-H2AX (9718s, CST), and β-actin (4967s, CST).
For orientation: A western blot detects proteins with antibodies after separation by electrophoresis.

Data set [9] deals with H460. Nature of the data set: Apoptosis assay (Annexin V-FITC/PI flow cytometry), H460. The conditions noted are these: 48 h. The protocol:
as §1, §2

For data set [10], the system named is H460. Nature of the data set: Cell cycle assay (PI staining, flow cytometry), H460. The note with it: H460, 48 h, 4 and 8 µM. The protocol:
(§10) Cancer cell lines PC-9 and H460 were then treated for 48 h with 9e or 9p at different concentrations to investigate the effects of these compounds on regulating the cell cycle. Cell cycle distributions were analyzed using the flow cytometry technique.
(§11) PC-9 and H460 cells were cultured in 6-well plates with a density of 3 × 10^5 cells/well. Cells were treated with different concentrations (0, 4, and 8 µM for PC-9 cells and H460 cells) of 9e or 9p for 48 h respectively. Then the cell cycle was determined by PI staining with the flow cytometer.

The subject of data set [11] is PC-9. Put plainly: Cell cycle assay (PI staining, flow cytometry), PC-9. The note with it: 48 h. The protocol: as §10, §11
In data set [12] the test system is γ-H2AX. Nature of the data set: Western blot of γ-H2AX in PC-9 cells. The conditions noted are these: PC-9, 0, 2, 4, 8 µM, 48 h.
From the text: as §8, §9

Broadly, the IC50 is the concentration that gives 50% inhibition. The low end stands for greater potency in that assay, the high end for weaker potency in that assay. As to `COc1c2n(cc(C(=O)Nc3cccc(-c4cn(-c5cccc([N+](=O)[O-])c5C)nn4)c3)c1=O)C[C@@H]1OCC[C@@H](C)N1C2=O` [Compound 9e], the cell apoptosis entry is reported as “little influence” in data set [1] (PC-9, 2 µM or 4 µM); “significant effects on cell apoptosis” in data set [1] (PC-9, 8 µM); “significant increased apoptosis” in [9] (H460, 8 µM and 16 µM). In addition, the “plate clone formation (cell proliferation)” value in [2] is “anti-proliferative activity against cell lines PC9 and H460 in a dose-dependent manner”; in data set [5], “anti-proliferative activity against cell lines PC9 and H460 in a dose-dependent manner”. For the same compound, the “Cell viability (100%)” value in data set [3] worked out at 30.94%; in data set [7] it was 24.05%. Further, the values for the IC50 in [3] and in data set [7] were 11.8 ± 2.31 µM and 3.83 ± 0.73 µM, respectively. Also, the ROS generation entry in data set [4] and in [6] was “significantly increased” each time. Besides, in data set [8], the β-catenin expression entry is recorded as “not affected”. The “effect on cell cycle” value in data set [10] was “increased G2/M phase and had little influences on G0/G1 or S phase”; in data set [11] (PC-9, 4 µM) it was “moderate effects on cell cycle”; in data set [11] (PC-9, 8 µM), “decreased G0/G1 phase and increased S and G2/M phase”. Further, the γ-H2AX expression entry in data set [12] is given as “not affected”.
For the compound `COc1c2n(cc(C(=O)Nc3cccc(-c4cn(-c5cccc(C(F)(F)F)c5)nn4)c3)c1=O)C[C@@H]1OCC[C@@H](C)N1C2=O` [Compound 9p], the cell apoptosis entry in data set [1] (PC-9, 2 µM or 4 µM) is on record as “little influence”; in data set [1] (PC-9, 8 µM), “significant effects on cell apoptosis”; in data set [9] (H460, 4 µM, 8 µM and 16 µM), “significantly increased apoptosis”. The “plate clone formation (cell proliferation)” value in data set [2] was “anti-proliferative activity against cell lines PC9 and H460 in a dose-dependent manner”; in data set [5] it was “anti-proliferative activity against cell lines PC9 and H460 in a dose-dependent manner”. For the same compound, the figures for the “Cell viability (100%)” value in data set [3] and in data set [7] were 5.63% and 2.11%, respectively. The IC50 came to 10.7 ± 0.48 µM in data set [3] and 3.17 ± 0.18 µM in data set [7]. Further, the ROS generation entry in data set [4] and in [6] was “significantly increased” in each case. The β-catenin expression entry in [8] is listed as “not affected”. Besides, the “effect on cell cycle” value in data set [10] is “significantly decrease the S phase”; in [11] (PC-9, 4 µM and 8 µM), “induced an S and G2/M cell cycle arrest”. Further, in data set [12], the γ-H2AX expression entry is “not affected”.

These data come from publication PMC11077815, “Synthesis and antitumor activity of dolutegravir derivatives bearing 1,2,3-triazole moieties” (BMC Chemistry, 2024).
